Data: patent US20190353647A1, “NOVEL REAL-TIME MULTIPLEXED, MULTI-COLOR BIOLUMINESCENCE RESONANCE ENERGY TRANSFER ASSAY, APPARATUS, AND USES THEREOF” (Universite de Bordeaux, priority 2016, published 2019)

Biological target: T1, TRPV1 (Homo sapiens, UniProt Q8NER1)
T1 construct: expressed in transfected cells; host or cells: HEK293T
Assay: Intramolecular BRET assay, YFP-TRPV1-Luc probe in HEK293T cells
Format: cell-based
Conditions: for Effect on CAPS-induced BRET increase: intramolecular test
Source text: They were referred as YFP and Luc for short in the rest of the manuscript. The cDNA of Luc and YFP were first cloned together using a three-piece ligation in the BamHI/XhoI site of pcDNA3.1(+) (Invitrogen, Carlsbad, Calif., USA), yielding two expression vectors pcDNA3.1 YFP-Luc where YFP was cloned in-fusion at the N-terminal of Luc, and pcDNA3.1 Luc-YFP where Luc was cloned in-fusion at the N-terminal of YFP. Both YFP and Luc were amplified by PCR from the pcDNA3-YFP-EPAC-Luc vector. Luc was cloned either at the N-terminal of YFP as a HindIII-EcoRI fragment (primers used: “Luc_HindIII_ATGN-term sense” and “Luc_no Stop_EcoRI_N-term antisense”) or at the COOH-terminal of YFP as an EcoRI-XhoI fragment (primer used: “Luc_EcoRI_ATG_C-term sense” and “Luc_XhoI_Stop_C-term antisense”). In parallel, YFP was cloned either at the N-terminal of Luc as a HindIII-EcoRI fragment (primers used: “YFP_HindIII_ATG_N-term sense” and “YFP_no Stop_EcoRI_N-term antisense”) or at the COOH-terminal of Luc as a EcoRI-XhoI fragment (primer used: “YFP_EcoRI_ATG_C-term sense” and “YFP_XhoI_Stop_C-term antisense”). The sequence joining Luc and YFP sequence encoded […] NO: 18) as a linker, and contained an AgeI restriction site. The YFP-hTRPV1-Luc expression vector was obtained by subcloning the human TRPV1 cDNA from the pDONR201-hTRPV1 vector (Harvard Medical School PlasmID Repository, clone HsCD00081472) as an EcoRI PCR fragment in the EcoRI site of the vector pcDNA3.1 YFP-Luc (primer used: “hTRPV1_EcoRI_Fus_Sense” and “hTRPV1_EcoRI_Fus_antisense”). The hTRPV1-Luc expression vector was obtained by subcloning the cDNA of hTRPV1 as a HindIII-EcoRI fragment in place of the YFP in the HindIII-EcoRI site of the pcDNA3.1 YFP-Luc vector (primer used: “hTRPV1_HindIII_ATG_Sense” and “hTRPV1_EcoRI_Fus_antisense”). The Luc-hTRPV3 expression vector was obtained by subcloning the cDNA of hTRPV3 (Harvard Medical School PlasmID Repository, clone HsCD00341603) as a AgeI-XhoI fragment in place of the YFP in the AgeI-XhoI sites of the pcDNA3.1 Luc-YFP vector (primer used: “hTRPV3_AgeI_ATG_Sense” and “[…]_XhoI_antisense”). The hTRPV4-Luc expression vector was obtained by subcloning the cDNA of hTRPV4 as a BamHI-AgeI fragment in place of the YFP in the BamHI-AgeI site of the pcDNA3.1 YFP-Luc vector (primer used: “hTRPV4_BamHI_ATG_Sense” and hTRPV4_AgeI_Fus_antisense”). In each case, the sequence joining the cDNA of interest and either Luc or YFP sequence encoded […] NO: 18) as a linker. HEK293T cells were maintained in Dulbecco's modified Eagle's medium-high Glucose (DMEM) (D6429, Sigma) supplemented with 10% fetal bovine serum, 100 units mL-1 penicillin and streptomycin. Twenty-four hours before transfection, cells were seeded at a density of 500,000 cells in 6-well dishes. Transient transfections were performed using polyethylenimine (PEI, linear, Mr 25,000; catalogue number 23966 Polysciences, Inc., Warrington, Pa., USA) with a PEI:DNA ratio of 4:1. […] The amount of transfected DNA was completed to a total of 2 μg with pcDNA3.1 empty vector. After overnight incubation, transfected cells were then detached, resuspended in DMEM w/o red phenol (Ref 21063-029, ThermoFisher scientific, Waltham, Mass., USA) and replated at a density of 10^5 cells per well in 96-well white plates with clear bottoms (Greiner Bio one, Courtaboeuf, France) pre-treated with D-polylysine (Sigma) for reading with the Tristar2 luminometer (Berthold Technologies, Bad Wildbad, Germany) or onto 12 mm diameter glass coverslips ([…], Braunschweig, Germany) treated with poly-L-lysine for the reading with the SpectraPro 2300i spectrometer (Acton Optics, Acton, Mass., USA). Cells were left in culture for 24 h before being processed for the BRET assay.

[1] = temperature rise from 25 to 42° C.

T1 sequence (Q8NER1 whole entry): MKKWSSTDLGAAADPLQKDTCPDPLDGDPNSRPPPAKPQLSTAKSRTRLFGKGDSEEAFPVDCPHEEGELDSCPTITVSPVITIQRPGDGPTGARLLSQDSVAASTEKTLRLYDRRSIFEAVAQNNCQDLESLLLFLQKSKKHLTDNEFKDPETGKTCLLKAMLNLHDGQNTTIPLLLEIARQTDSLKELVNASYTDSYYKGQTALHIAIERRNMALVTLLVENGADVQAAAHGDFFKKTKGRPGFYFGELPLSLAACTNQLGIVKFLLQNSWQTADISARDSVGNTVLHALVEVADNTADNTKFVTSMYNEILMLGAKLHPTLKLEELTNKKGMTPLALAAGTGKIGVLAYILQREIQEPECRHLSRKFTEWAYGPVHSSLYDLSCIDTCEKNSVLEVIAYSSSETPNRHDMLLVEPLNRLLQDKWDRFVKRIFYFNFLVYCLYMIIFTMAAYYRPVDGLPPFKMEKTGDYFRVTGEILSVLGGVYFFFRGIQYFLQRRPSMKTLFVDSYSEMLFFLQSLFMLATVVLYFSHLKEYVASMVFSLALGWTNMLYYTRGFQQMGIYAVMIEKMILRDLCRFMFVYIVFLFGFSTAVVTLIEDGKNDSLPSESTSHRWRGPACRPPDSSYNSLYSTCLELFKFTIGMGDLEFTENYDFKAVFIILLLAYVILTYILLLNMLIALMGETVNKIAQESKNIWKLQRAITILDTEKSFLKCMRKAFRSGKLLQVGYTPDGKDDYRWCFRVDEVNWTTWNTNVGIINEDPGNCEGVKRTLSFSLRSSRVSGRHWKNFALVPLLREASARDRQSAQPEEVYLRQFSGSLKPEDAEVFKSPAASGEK

Row | Compound | Effect on CAPS-induced BRET increase | Change of basal BRET signal | Change in CAPS potency on temperature rise [1] | Change in maximal efficacy on temperature rise [1] | Temperature-dependent behaviour of the probe after preincubation (heating 25 to 50° C.)
1 | CC(=O)Nc1nc2c(Oc3cc(-c4ccc(C(F)(F)F)cc4)ncn3)cccc2s1 [AMG517] | inhibited | – | – | – | –
2 | COc1cc(CNC(=O)CCCC/C=C/C(C)C)ccc1O [CAPS, Capsaicin] | – | increased with a first order kinetic | leftward shift | increase | –
3 | Oc1cc2c(cc1O)CN(C(=S)NCCc1ccc(Cl)cc1)CCC2 [CPZ, Capsazepine] | inhibited | – | – | – | completely modified the temperature-dependent behaviour
